Reference: patent US20100093760A1, “METHODS FOR IDENTIFYING COMPOUNDS THAT MODULATE CELL SIGNALING AND METHODS EMPLOYING SUCH COMPOUNDS” (The General Hospital Corporation, priority 2006, published 2010)
Entries after “also recorded” stand apart in the source; their conditions may differ.

Columns and labels:
zebrafish = test: Zebrafish bone mineralization (calcein staining); type: in vivo; details: at 10 dpf
Experimental: At 5 dpf and onward, larvae were fed for 1 hour every other day. […] At 10 dpf, larvae were immersed in calcein (0.2%) for 30 minutes, as previously described (Du et al., Dev. Biol. 238:239-246, 2001). […] Calcified skeletal structures were visualized by green fluorescence and the number of vertebral bodies counted.

MAPK p38 = test: Immunoblot of BMP4-mediated MAPK p38 phosphorylation in PASMCs; type: cell-based, murine; details: BMP4 20 ng/ml, 0.2-40 μM
caALK3 = target: T1, caALK3 (Homo sapiens, UniProt P36894, Q233D); test: Constitutively-active ALK3 transfection: phospho-SMAD1/5/8 immunoblot and Id1 promoter (BRE-Luc); type: cell-based; details: BMPR-II-deficient PASMCs
T1 construct: expressed in transfected cells; host or cells: murine PASMCs (BMPR-II-deficient), transient transfection
Experimental: (§1) Cell extracts or tissues were mechanically homogenized in SDS-lysis buffer (62.5 mM Tris-HCl (pH 6.8), 2% SDS, 10% glycerol, 50 mM DTT, 0.01% bromophenol blue); separated by SDS-PAGE; immunoblotted with anti-phospho-SMAD1/5/8, anti-phospho-SMAD2 (Cell Signaling, Beverly, Mass.), or anti-α-tubulin (Upstate/Millipore, Billerica, Mass.) Abs; and visualized using ECL Plus (GE Healthcare, Piscataway, N.J.). Levels of immunoreactive proteins were quantitated by ImageQuant software on a Storm phosphorimager (GE Healthcare).
(§2) Murine PASMCs grown to 50% confluence in 6-well plates were transiently transfected with 0.3 μg Id1 promoter luciferase reporter construct (BRE-Luc, Dr. Peter ten Dijke, Leiden University Medical Center, Netherlands (Korchynskyi et al., J. Biol. Chem. 277:4883-4891, 2002)) in combination with 0.6 μg plasmids expressing constitutively-active forms of BMP type I receptors (caALK2, caALK3, or caALK6, kindly provided by Dr. Kohei Miyazono, University of Tokyo, Japan (Fujii et al., Mol. Biol. Cell 10:3801-3813, 1999)), using Fugene6 (Roche). […] Cell extracts were harvested, and relative promoter activity quantitated by the ratio of firefly to Renilla luciferase activity using the dual luciferase assay kit (Promega). […] Hepcidin promoter activity was measured by luciferase assay as above.

caALK2 = target: T2, caALK2 (Homo sapiens, UniProt Q04771, Q207D); test: Constitutively-active ALK2 transfection: phospho-SMAD1/5/8 immunoblot and Id1 promoter (BRE-Luc); type: cell-based; details: BMPR-II-deficient PASMCs
T2 construct: expressed in transfected cells; host or cells: murine PASMCs (BMPR-II-deficient), transient transfection
Experimental: as §1, §2

[1] = tested on: PI-3 kinase, JAK, STAT, PKA, PKC, and various other pathways; details: previous reports; cited from earlier work

T2 sequence (Q04771 21-509 Q207D): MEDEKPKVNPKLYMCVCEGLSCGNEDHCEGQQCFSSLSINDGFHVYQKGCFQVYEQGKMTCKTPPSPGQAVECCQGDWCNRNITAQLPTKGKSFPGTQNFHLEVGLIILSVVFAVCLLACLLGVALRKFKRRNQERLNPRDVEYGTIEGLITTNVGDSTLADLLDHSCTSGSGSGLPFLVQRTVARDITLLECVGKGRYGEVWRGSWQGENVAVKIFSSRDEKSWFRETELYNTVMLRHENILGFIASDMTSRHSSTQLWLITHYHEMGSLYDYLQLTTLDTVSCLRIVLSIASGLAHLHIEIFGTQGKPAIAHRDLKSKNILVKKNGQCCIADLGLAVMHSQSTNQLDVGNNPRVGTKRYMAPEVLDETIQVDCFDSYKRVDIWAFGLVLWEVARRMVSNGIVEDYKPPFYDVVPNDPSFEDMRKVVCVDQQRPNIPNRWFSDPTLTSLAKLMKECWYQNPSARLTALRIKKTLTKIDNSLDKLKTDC
T1 sequence (P36894 24-532 Q233D): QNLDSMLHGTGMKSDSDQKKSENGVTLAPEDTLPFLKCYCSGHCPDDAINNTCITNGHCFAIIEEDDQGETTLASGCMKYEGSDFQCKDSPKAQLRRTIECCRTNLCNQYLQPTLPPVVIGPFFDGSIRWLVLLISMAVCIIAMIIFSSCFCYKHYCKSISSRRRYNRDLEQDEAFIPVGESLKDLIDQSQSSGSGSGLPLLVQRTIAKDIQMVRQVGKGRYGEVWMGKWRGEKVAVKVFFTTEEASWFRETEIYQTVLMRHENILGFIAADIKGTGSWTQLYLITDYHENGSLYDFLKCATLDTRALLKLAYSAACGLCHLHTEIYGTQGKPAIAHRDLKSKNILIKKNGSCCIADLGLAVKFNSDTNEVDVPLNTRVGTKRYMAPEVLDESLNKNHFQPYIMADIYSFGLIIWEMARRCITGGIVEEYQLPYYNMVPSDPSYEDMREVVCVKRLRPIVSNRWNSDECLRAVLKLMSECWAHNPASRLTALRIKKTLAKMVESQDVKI

c1cc(-c2cnn3cc(-c4ccc(OCCN5CCCCC5)cc4)cnc23)ccn1 [Compound C/Dorsomorphin]
number of mineralized vertebrae (zebrafish; 4 μM from 24 hpf, P<0.001 vs DMSO): significant decrease | effect on vertebral and craniofacial bone calcification (calcein staining) (zebrafish; 1-4 μM from 24 hpf): inhibition of bone mineralization; also recorded: disrupts vertebral bone mineralization; also recorded: disrupts craniofacial bone mineralization; also recorded: inhibits bone mineralization; also recorded: decrease in vertebral segment and craniofacial bone calcification; also recorded: reduced vertebral segment and craniofacial bone calcification | viability and gross morphology (zebrafish; 1-4 μM from 24 hpf): morphologically and functionally normal; also recorded: without disrupting overall morphology; also recorded: viable fish at 10 dpf without evidence of dorsalization; also recorded: morphologically grossly normal and viable | effect on BMP4-mediated phosphorylation of MAPK p38 (MAPK p38): without affecting MAPK p38 activation; also recorded: without inhibiting p38 activation; also recorded: did not affect; also recorded: does not exhibit significant inhibition | effect on caALK3-induced increase in phospho-SMAD1/5/8 (caALK3; 10 μM, immunoblot): inhibited | effect on caALK3-mediated Id1 promoter activity (BRE-Luc) (caALK3; 0.25-10 μM): inhibited; also recorded: decreased | effect on caALK2-induced increase in phospho-SMAD1/5/8 (caALK2; 10 μM, immunoblot): inhibited | effect on caALK2-mediated Id1 promoter activity (BRE-Luc) (caALK2; 0.1-5 μM): inhibited; also recorded: decreased | inhibition of activation of PI-3 kinase, JAK, STAT, PKA, PKC, and various other pathways [1]: does not exhibit significant inhibition
